One experiment has as its system keratinocyte cultures. To be noted: cited from earlier work.
In experiment [1] the target is T1, elastase (from human leukocytes) (Homo sapiens, UniProt P08246).
T1 construct: elastase (from human leukocytes; Sigma E8140; 100 mU/well); purchased Sigma E8140; host or cells: human leukocytes
T1 sequence (P08246 30-267): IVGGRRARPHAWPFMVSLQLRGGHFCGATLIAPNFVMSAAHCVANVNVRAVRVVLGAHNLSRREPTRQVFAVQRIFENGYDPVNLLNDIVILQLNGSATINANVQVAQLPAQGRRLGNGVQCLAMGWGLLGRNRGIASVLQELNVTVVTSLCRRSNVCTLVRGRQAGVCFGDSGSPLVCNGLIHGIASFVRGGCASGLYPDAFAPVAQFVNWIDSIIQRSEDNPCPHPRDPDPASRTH
The experiment is described as follows: Action on the activity of leukocyte elastase (fluorescence, elastin substrate). The format is biochemical. The method, then: 5,7-Dihydroxy-2-methylchromen-4-one in TRIS buffer (500 mM) is incubated for 10 minutes on ice with elastase (from human leukocytes; Sigma E8140; 100 mU/well). 5 μg/well of elastin are subsequently added, and the plates are incubated at 37° C. for 2 hours. The fluorescence is determined using a Spectromax Gemini spectrometer (Molecular Devices) at λex=485 nm and λem=538 nm.

Experiment [2] has as its system PGE2 release from human keratinocytes (cell line NCTC R13). The experiment is described as follows: Antiinflammatory properties (PGE2 assay): PMA-induced PGE2 release, ELISA. To be noted: for PGE2: PMA-stimulated, 24 h; for PGE2 release % compared with control: control (only PMA) = 100. In kind it is cell-based. Here is the method: Human keratinocytes of the cell line NCTC R13 are pre-cultivated for 24 hours at 37° C. in a 5% CO2 atmosphere with DMEM culture medium (Life Technologies). The cells are treated with LU for 24 hours, and the culture medium is then removed. A fresh culture medium containing the inflammation-triggering active ingredient phorbol myristate acetate (PMA; […]) and LU is added. After incubation for 24 hours, the culture medium is collected and analysed. By means of an ELISA DE0100 kit (R&D Systems), the release is used in order to investigate the release of the inflammation marker prostaglandin E2 (PGE2) (Table).
On the technique in general: In an ELISA, binding on a coated surface is turned into a signal by an enzyme label.

In experiment [3] the target is T2, hyaluronidase (HYAL, Sigma type IV-S, H3884) (Bos taurus, UniProt Q2YDK3).
T2 construct: hyaluronidase (HYAL, Sigma type IV-S, H3884)
T2 sequence (Q2YDK3 1-553): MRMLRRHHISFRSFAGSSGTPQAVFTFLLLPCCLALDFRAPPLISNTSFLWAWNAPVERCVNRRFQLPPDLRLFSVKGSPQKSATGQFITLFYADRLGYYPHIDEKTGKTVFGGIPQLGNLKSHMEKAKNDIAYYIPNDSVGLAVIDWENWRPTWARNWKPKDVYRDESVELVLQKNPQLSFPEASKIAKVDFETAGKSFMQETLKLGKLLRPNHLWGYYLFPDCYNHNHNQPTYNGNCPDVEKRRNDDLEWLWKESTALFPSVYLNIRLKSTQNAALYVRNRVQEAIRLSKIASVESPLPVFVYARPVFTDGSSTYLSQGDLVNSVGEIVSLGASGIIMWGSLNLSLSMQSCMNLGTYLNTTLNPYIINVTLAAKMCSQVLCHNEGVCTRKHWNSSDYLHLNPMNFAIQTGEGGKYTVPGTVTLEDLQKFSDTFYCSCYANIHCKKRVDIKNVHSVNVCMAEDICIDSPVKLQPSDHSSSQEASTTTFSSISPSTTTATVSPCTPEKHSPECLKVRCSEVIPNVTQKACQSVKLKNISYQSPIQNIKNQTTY
The experiment is described as follows: Action on the activity of hyaluronidase (remaining hyaluronic acid determined photometrically). The note with it: for Hyaluronidase activity: control (no LU) = 100. The format is biochemical. Here is the method: 5,7-Dihydroxy-2-methylchromen-4-one in phosphate buffer (0.1 M) is pre-incubated with hyaluronidase (HYAL, Sigma type IV-S, H3884; 1 mg/l in phosphate buffer (0.1 M)). Hyaluronic acid (HA, Sigma H-1876; 1.2 mg/ml) is subsequently added, and the mixture is incubated at 37° C. for 1 hour. The remaining hyaluronic acid (HA) is subsequently precipitated using serum albumen (BSA, Sigma A7888) and determined photometrically.

For experiment [4] the following is noted: over the entire pH range; cited from earlier work.

Data on three compounds can be found in US9044409B2, “Use of chromen-4-one derivatives” (Merck Patent GmbH, priority 2003, dated 2015).

`O=C1CCOc2ccccc21` [Example 4-chromanone, 4-chromanone]: in the experiment with keratinocyte cultures, the cell differentiation result was “promotes cell differentiation” and the lipid production result was “stimulates lipid production”.

One may read the inhibition as the percentage by which the read-out fell short of the control. Read a high inhibition as a response far below the control. For the compound `Cc1cc(=O)c2c(O)cc(O)cc2o1` [LU, 5,7-dihydroxy-2-methylchromen-4-one], in experiment [1] (40 μM LU), the “% quenching” value was 0%, the Fluorescence intensity was found to be 2195.9 and 40 µM produced 10% inhibition. Also, the remaining activity at 40 µM in experiment [1] (40 μM LU, neg. control = 100, read-out: Elastase activity % compared with control) was 90%. Also, in experiment [1] (200 μM LU), the “% quenching” value turned out to be 19%, the Fluorescence intensity was determined as 1096.4 and testing at 200 µM gave an inhibition of 45%. For the same compound, the remaining activity at 200 µM in experiment [1] (200 μM LU, neg. control = 100, read-out: Elastase activity % compared with control) amounted to 45%. Moreover, in experiment [1] (doses of 200 μM and 40 μM), the “Inhibition of the elastase activity (in words)” value was “clear inhibition of the elastase activity”. Further, in experiment [2] (0.008 mM LU), the “PGE2” value amounted to 340.62 ng/mL and the “PGE2 release % compared with control” value worked out at 113%. For the same compound, in experiment [2] (0.04 mM LU), the “PGE2” value came to 226.39 ng/mL and the “PGE2 release % compared with control” value was 75%. In addition, in experiment [2] (0.2 mM LU), the “PGE2” value was 6.31 ng/mL and the “PGE2 release % compared with control” value was determined as 2%. Besides, in experiment [2] (doses of 0.2 mM and 0.04 mM), the “PGE2 release on exposure to PMA (in words)” value is on record as “clear reduction in PGE2 release”. Further, in experiment [3] (3.125 mM LU), the inhibition at 3125 µM amounted to 9% and the Hyaluronidase activity was determined as 91. In experiment [3] (6.25 mM LU), this compound gave an inhibition at 6250 µM of 19% and a Hyaluronidase activity of 81. In experiment [3] (12.5 mM LU), this compound yielded an inhibition at 12500 µM of 37% and a Hyaluronidase activity of 63. In experiment [3] (25 mM LU), this compound gave an inhibition at 25000 µM of 63% and a Hyaluronidase activity of 37. Moreover, the “Inhibition of hyaluronidase activity (in words)” value in experiment [3] (in the doses investigated (3.125-25 mM)) is “clear inhibition of hyaluronidase activity”.

In the case of `O=c1c(O)c(-c2ccc(O)c(O)c2)oc2cc(O)cc(O)c12` [Quercetin, 3,3′,4′,5,7-pentahydroxyflavone], the antioxidant activity result in experiment [4] is recorded as “greatest activity amongst the structures investigated”.
